“Also recorded” adds a separate entry of the source. Like-named read-outs stand apart in the source and are kept apart here.
Columns and labels:
aorta of SCD mice = test: Vessel O2.- production by coelenterazine-enhanced chemiluminescence; format: cell-based, mouse; conditions: for rates of O2.— production enhanced by xanthine: SCD mouse vessels pretreated, CuZn SOD 30 U/ml, allopurinol 100 μM, BOF-4272 25 μM
Source text: Values represent mean±SD (n=4). Statistical analysis was by two-way ANOVA with the Duncan's post hoc test. *, p<0.05 compared to control. +, p<0.05 compared to xanthine-treated sickle cell vessels. **, […] compared to control and all treated vessel groups.

HbA and HbS red cells [1] = test: Red cell O2.- release by cytochrome c reduction; format: cell-based, human
Experimental: If red blood cells from sickle cell patients produce increased amounts of O2. and H2O2 as compared to red blood cells from healthy donors, then local depletion of .NO might be explained on this basis. […] The mean Hb content of HbA and HbS red cell preparations was similar. DMNQ (100 μM) was added to stimulate red cell O2.— production.
Blood was collected from healthy HbA adult volunteers and homozygous HbS patients in anticoagulated (EDTA) vacu-containers. All individuals were evaluated for cytochrome b5 reductatse and glucose-6-phosphate dehydorgenase activity and none were reported deficient. […] Packed RBCs were diluted to a hematocrit of 2.5% (vol/vol) hemoglobin concentrations as determined with Drabkin's reagent at 540 nm, and rates of O2. release over 2 hours were quanitifed spectrophotometrically by CuZn SOD-inhibitable (100 units/ml, equivalent to approximately 33 ug/ml SOD) reduction of cytochrome c (50 uM) at 550 nm(εM=21 mM^−1cm^−1). In some experiments, O2. release was measured in cells pretreated with DMNQ (Oxis, 100 uM), 3-hydroxy-1,2-dimethyl-4-pyridone (HDP, Aldrich, 0.5 mM), and 4,4-diisothiocyano-2,2 disulfonic acid stilbene (DIDS, Sigma, 200 uM). Possible Hb intereference in determination of rates of cytochrome c reduction was evaluated by performing a singular value decomposition analysis (Matlab, Mathworks, Natick, Mass.).

eNOS = test: NOS activity in lysates of BAEC after oxidant stress; format: cell-based, bovine; conditions: 2 hr, mean ± SEM, n = 3
Source text: Also, XO can serve as a source of H2O2 that in turn will support the oxidative reactions of myeloperoxidase (NO consumption and the generation of chlorinating, nitrating and oxidizing species). Another potential mechanism explaining XO inhibition of endothelial-dependent relaxation and cGMP formation may be oxidant-induced changes in the expression and/or activity of eNOS, especially during more chronic exposure to reactive oxygen species. Bovine aortic endothelial cells (BAEC) were exposed to the redox-cycling quinone 2,3-dimethoxynapthoquinone (DMNQ), which generates controllable and low rates of O2.— and H2O2. Following treatment with DMNQ for 2 hr, the capacity of endothelial cell lysates to oxidize arginine to citrulline was used to indicate eNOS activity. Additional cells were incubated with 10 mU/ml XO for 1 hr, extensively washed and 100 μM xanthine was added during a 1 hr post-incubation period.

HbA and HbS red cells [2] = test: Red cell nitric oxide consumption; format: cell-based, human; conditions: extracellular CuZn SOD 100 U ml^−1; DMNQ 100 μM
Source text: Values represent mean±SEM (n=4 to 14). Statistical analysis was by two-way ANOVA with Tukey post hoc test. *, p<0.05 compared with basal;
Accepting that *NO reacts at almost diffusion-limited rates with O2.— (25), the relative rates of red cell .NO consumption was utilized to probe for differences in both intra-and extracellular O2.— (and possibly LOO—) production by HbA and HbS red cells. […] The presence of endogenous lipid hydroperoxides was undetectable in both HbA and HbS RBC membranes.

xanthine oxidase = target: T1, xanthine oxidase (Homo sapiens, UniProt P47989); conditions: intravascular concentration of 10 μg/ml; cited from earlier work
T1 construct: host or cells: forearm blood vessels, in vivo infusion of oxypurinol
T1 sequence (P47989 whole entry, the tested form may be a part): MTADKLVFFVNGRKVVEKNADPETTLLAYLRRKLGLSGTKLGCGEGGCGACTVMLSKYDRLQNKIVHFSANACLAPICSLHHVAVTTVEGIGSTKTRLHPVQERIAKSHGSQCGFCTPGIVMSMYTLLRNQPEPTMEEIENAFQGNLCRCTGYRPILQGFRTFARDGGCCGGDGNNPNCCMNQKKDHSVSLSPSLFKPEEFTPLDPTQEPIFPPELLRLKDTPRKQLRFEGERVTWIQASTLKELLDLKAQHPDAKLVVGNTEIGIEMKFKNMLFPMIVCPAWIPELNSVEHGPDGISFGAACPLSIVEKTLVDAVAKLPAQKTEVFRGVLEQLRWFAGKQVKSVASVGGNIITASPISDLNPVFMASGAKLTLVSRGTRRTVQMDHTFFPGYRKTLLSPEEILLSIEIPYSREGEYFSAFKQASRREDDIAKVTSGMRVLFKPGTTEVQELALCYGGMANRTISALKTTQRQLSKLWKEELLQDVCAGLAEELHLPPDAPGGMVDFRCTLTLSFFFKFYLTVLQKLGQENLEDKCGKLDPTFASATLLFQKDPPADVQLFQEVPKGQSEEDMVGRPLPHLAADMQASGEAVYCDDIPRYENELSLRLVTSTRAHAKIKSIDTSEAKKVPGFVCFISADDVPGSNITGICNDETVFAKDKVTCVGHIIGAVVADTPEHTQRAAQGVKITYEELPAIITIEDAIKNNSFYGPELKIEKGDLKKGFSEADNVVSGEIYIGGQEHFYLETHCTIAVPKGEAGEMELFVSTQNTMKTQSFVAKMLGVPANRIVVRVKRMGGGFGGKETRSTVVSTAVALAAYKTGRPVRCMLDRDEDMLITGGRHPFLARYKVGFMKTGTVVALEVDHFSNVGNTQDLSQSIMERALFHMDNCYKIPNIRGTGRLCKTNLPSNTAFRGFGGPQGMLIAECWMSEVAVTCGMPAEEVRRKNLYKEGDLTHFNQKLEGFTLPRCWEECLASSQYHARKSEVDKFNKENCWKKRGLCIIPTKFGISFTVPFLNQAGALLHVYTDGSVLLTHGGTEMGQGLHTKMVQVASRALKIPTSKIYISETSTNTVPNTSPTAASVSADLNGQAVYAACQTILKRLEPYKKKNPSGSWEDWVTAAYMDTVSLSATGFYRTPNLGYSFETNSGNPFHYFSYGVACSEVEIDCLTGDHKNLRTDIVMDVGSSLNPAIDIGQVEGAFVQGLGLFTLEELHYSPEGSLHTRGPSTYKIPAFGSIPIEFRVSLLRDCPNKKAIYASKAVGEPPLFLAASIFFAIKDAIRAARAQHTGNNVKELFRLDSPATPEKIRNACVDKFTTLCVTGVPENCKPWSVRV

[3] = compared to allopurinol; cited from earlier work
aortic rings [4] = test: Acetylcholine relaxation of aortic rings pre-incubated with XO; format: cell-based; conditions: rings incubated with XO 10 mU/ml 1 hr, washed; xanthine in buffer; heparin 10-1000 U/ml, allopurinol 10-250 μM
Experimental: (§1) Increased cell-associated XO can impair endothelial-dependent vascular signaling. When isolated aortic ring segments are incubated with XO for 1 hr and then extensively washed to remove unbound XO, endothelial-dependent relaxations in response to acetylcholine are diminished when the XO substrate xanthine is present in the buffer (FIG. 2A). Inhibition of endothelial-dependent relaxation is abrogated by post-washing treatment of the aortic rings with the XO inhibitor allopurinol, as well as heparin, which inhibits and/or competes for XO binding to endothelial cell GAGs. This ex vivo model of vascular dysfunction reinforces observations made in a model of atherosclerosis. […] Importantly, there appears to be sufficient substrate in the vasculature for XO to catalyze elevated oxidant production, without the need for exogenously added purine.

aortic rings [5] = test: Acetylcholine relaxation of aortic rings from cholesterol-fed rabbits; format: cell-based, rabbit; conditions: rings from rabbits on 1% cholesterol diet (6 weeks); heparin 1000 U/ml, allopurinol 100 μM
Experimental: as §1

guanylate cyclase = test: Ionomycin-induced .NO-dependent cGMP formation, XO-exposed endothelial cells with smooth muscle cells; format: cell-based, bovine; conditions: BAEC exposed to XO 10 mU/ml 3 hr, washed; xanthine 100 μM, ionomycin 6.7 μM, 15 min; cGMP by ELISA
Experimental: Endothelial cells were cultured on Transwell filters and exposed to XO (10 mU/ml) for 3 hr and washed extensively. Filters were then transferred to dishes containing smooth muscle cells and incubated with xanthine (100 μM) and ionomycin (6.7 μM)±allopurinol for 15 min. cGMP was then determined by ELISA. (n=3);
Bovine aortic endothelial cell (BAEC) monolayers having bound and potentially internalized XO manifested an impaired ability to support ionomycin-induced, .NO-dependent cGMP formation by adjacent smooth muscle cells.

[6] = test system: vessel rings prepared from sickle cell mice; test: Relaxation of vessel rings from sickle cell mice to NO-dependent stimuli; format: cell-based, mouse; conditions: MnTE-2-PyP 50 μM, allopurinol 50 μM
[7] = test system: myocardial ischemia-reperfusion injury; conditions: rabbit; cited from earlier work
[8] = test system: myocardial ischemia-reperfusion injury; conditions: clinical; cited from earlier work
[9] = at pharmacologic concentrations; cited from earlier work
[10] = test system: cultured endothelial cells; conditions: heparin on bound XO; enzymes as pretreatment of cells; cited from earlier work

Compound: COc1cc(-c2cnn3c(=O)nc[n-]c23)ccc1[S+]([O-])c1ccccc1.[Na+] (stereo not shown) [BOF-4272]
- rates of O2.— production enhanced by xanthine (aorta of SCD mice): returned to basal rates

Compound: O=S(=O)(O)c1cc(N=C=S)ccc1C=Cc1ccc(N=C=S)cc1S(=O)(=O)O [DDS, 4,4-diisothiocyano-2,2 disulfonic acid stilbene]
- decrease in rates of cytochrome c reduction (HbA and HbS red cells [1]; pretreated with 200 μM, both HbA and HbS red cells): ~35%

Compound: COC1=C(OC)C(=O)c2ccccc2C1=O [DMNQ, 2,3-dimethoxynapthoquinone]
- NOS activity (eNOS; DMNQ 5 μM): 0.75 ± 0.09 pmol/min/mg prot
- NOS activity (eNOS; DMNQ 50 μM): 0.49 ± 0.60 pmol/min/mg prot
- rate of .NO consumption (HbA and HbS red cells [2]): significantly increased rates of red cell .NO consumption
- rates of O2. production (aorta of SCD mice; DMNQ 100 μM, positive control, both control and SCD mouse vessels): significantly enhanced rates of O2. production

Compound: Cc1c(O)c(=O)ccn1C [HDP, 3-hydroxy-1,2-dimethyl-4-pyridone]
- decrease in O2.— (HbA and HbS red cells [1]; preincubation with HDP 0.5 mM, 150 mm Hg O2, pH 7.4): ~36%

Compound: O=c1[nH]c(=O)c2c[nH]nc2[nH]1 [Oxypurinol]
- inhibition of xanthine oxidase activity in the forearm blood vessels (xanthine oxidase): greater than 90%
- water solubility [3]: increased water solubility as compared to allopurinol

Compound: Oc1ncnc2[nH]ncc12 [allopurinol]
- reversal of XO-induced reduction of vasodilation in response to acetylcholine (aortic rings [4]): reversible; also recorded: abrogated
- restoration of endothelial-dependent relaxation (aortic rings [5]): partially restored endothelial-dependent relaxation; also recorded: significantly reversed
- reversal of XO inhibition of .NO-mediated cGMP formation (guanylate cyclase): reversible
- rates of O2.— production enhanced by xanthine (aorta of SCD mice): returned to basal rates
- vessel relaxation in response to NO-dependent stimuli [6]: reversal of impaired vessel relaxation
- myocardial ischemia-reperfusion injury [7]: attenuated
- myocardial ischemia-reperfusion injury [8]: attenuated
- direct antioxidant properties [9]: no direct antioxidant properties

Compound: CuZn SOD: CuZn superoxide dismutase, O2.- scavenging enzyme
- rate of .NO consumption (HbA and HbS red cells [2]): did not impact on the rate of .NO consumption
- rates of O2.— production enhanced by xanthine (aorta of SCD mice): returned to basal rates

Compound: heparin
- reversal of XO-induced reduction of vasodilation in response to acetylcholine (aortic rings [4]): reversible; also recorded: abrogated
- restoration of endothelial-dependent relaxation (aortic rings [5]): partially restored endothelial-dependent relaxation; also recorded: significantly reversed
- effect on XO binding to endothelium [10]: partially displaced
